Each structure is given as a SMILES string. Read-outs that look alike come from different tables or passages of the source.

The test system of the experiment is Pseudomonas clinical isolate B64. Nature of the experiment: BIOSCREEN C growth assay, peptide plus antibiotic combinations. The settings on record: for MIC: Pseudomonas. The class given is cell-based, Pseudomonas aeruginosa. On the procedure: FIGS. 28A and 28B show the effect of BCC002-5R-MP (SEQ ID NO:21) in combination with Cefotaxime on MIC using Pseudomonas clinical isolate B64. Cefotaxime (Cefo) and peptide combinations included a constant amount of Cefotaxime (2.81 μg/ml) with suboptimal amounts of peptide (0, 0.34, 1.01, and 3.04 μg/ml). […] FIG. 28B is a histogram showing Fractional area (FA), which is an indication of the MIC.
FIG. 29B is a histogram showing Fractional area (FA), which is an indication of the MIC.
FIGS. 30A and 30B show the effect of BCC02-5R-MP (SEQ ID NO:21) in combination with Levofloxacin (Levo) and peptide combinations included a constant amount of Levofloxacin (3.6 μg/ml) with suboptimal amounts of peptide (0, 0.34, 1.01, 3.04 μg/ml). […] FIG. 30B is a histogram showing Fractional area (FA), which is an indication of the MIC.
The peptide and antibiotics were set up in the wells of the microtiter plate at starting ratios of MIC equivalents of antibiotic:peptide at 3:1, 1:1, and 1:3. They were serially diluted to concentrations well below suboptimal/sublethal levels of the antibiotic and peptide. The organism was added (1×10^5 CFU/well), the BIOSCREEN C™ assay (Growth Systems USA, Piscataway, N.J.) was performed, and data was collected over 24 hours.

Setting [1] is: antibiotic alone, 1×10^5 CFU/well, 24 hours, read-out: MIC.

Broadly, the MIC is the lowest concentration that inhibits growth of the organism. As for `CO/N=C(\C(=O)N[C@@H]1C(=O)N2C(C(=O)O)=C(COC(C)=O)CS[C@H]12)c1csc(N)n1` [Cefotaxime], the “bactericidal impact on growth curve, in words” value (Cefotaxime alone at 2.8 μg/ml) is “very little bactericidal impact”. Under setting [1], the MIC is 15 µg/mL.

On to `C[C@H]1COc2c(N3CCN(C)CC3)c(F)cc3c(=O)c(C(=O)O)cn1c23` [Levofloxacin], for which the minimum inhibitory concentration (MIC) under setting [1] is 15 µg/mL and the minimal inhibitory concentration (MIC) (in the presence of 3.04 μg/ml of peptide BCC02-5RMP, read-out: MIC of Levofloxacin with peptide) came to 3.5 µg/mL.

For the origin of these results see US11884710B2, “Peptide compounds and methods of use in wound healing” (priority 2013, dated 2024).
